The structures appear in SMILES notation. Where only a bound is given, the exact number is not on record here.

From patent US8501946B2 (Glaxo Group Limited, priority 2009, dated 2013) come the findings set out here.

In the experiment the target is T1, human recombinant P2X7 receptors (Homo sapiens, UniProt Q99572).
T1 construct: expressed in transfected cells
T1 sequence (Q99572 1-595): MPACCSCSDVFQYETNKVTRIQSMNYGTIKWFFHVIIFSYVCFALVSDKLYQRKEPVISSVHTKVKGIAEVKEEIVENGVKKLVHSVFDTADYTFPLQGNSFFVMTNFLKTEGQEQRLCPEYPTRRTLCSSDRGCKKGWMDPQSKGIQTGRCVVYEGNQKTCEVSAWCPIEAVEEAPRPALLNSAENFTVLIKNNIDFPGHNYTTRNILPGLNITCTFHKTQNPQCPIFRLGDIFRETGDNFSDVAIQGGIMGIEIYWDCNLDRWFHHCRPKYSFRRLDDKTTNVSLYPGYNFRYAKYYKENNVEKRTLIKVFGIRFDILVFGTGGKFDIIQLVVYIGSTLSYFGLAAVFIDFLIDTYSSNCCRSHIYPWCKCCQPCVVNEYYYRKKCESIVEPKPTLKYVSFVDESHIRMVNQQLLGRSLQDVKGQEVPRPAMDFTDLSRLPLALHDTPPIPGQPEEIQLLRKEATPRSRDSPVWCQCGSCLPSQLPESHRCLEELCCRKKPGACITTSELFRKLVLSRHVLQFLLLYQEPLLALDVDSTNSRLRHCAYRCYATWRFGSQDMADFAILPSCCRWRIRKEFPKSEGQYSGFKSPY
Kind of experiment: Ethidium Accumulation Assay 1 (HEK293 cells, ATP-induced ethidium uptake). In kind it is cell-based. Particulars: HEK293 cells expressing human P2X7; 1 mM ATP; sometimes mean of more than one measurement; read-out: Assay 1 (antagonist pIC50 for blocking ATP responses) (converted). As for the experimental part:
Eithidium Accumulation Assay 1
Studies were performed using NaCl assay buffer of the following composition: 140 mM NaCl, 10 mM HEPES [4-(2-hydroxyethyl)-1-piperazine-1-ethanesulfonic acid], 5 mM N-methyl-D-glucamine, 5.6 mM KCl, 10 mM D-glucose, 0.5 mM CaCl2 (pH 7.4).
Human Embryonic Kidney (HEK) 293 cells, stably expressing human recombinant P2X7 receptors, were grown in poly-D-lysine pretreated 96 well plates for 18-24 hours.
The cells were washed twice with 350 μl of the assay buffer, before addition of 50 μl of the assay buffer containing the putative P2X7 receptor antagonist compound. (A small amount of dimethyl sulfoxide, for initially dissolving the compound, is optionally used and present in this 50 μl test compound sample.) The cells were then incubated at room temperature (19-21° C.) for 30 min before addition of ATP and ethidium (100 μM final assay concentration). The ATP concentration was chosen to be close to the EC80 for the receptor type and was 1 mM for studies on the human P2X7 receptor. Incubations were continued for 8 or 16 min and were terminated by addition of 25 μl of 1.3M sucrose containing 4 mM of the P2X7 receptor antagonist Reactive Black 5 (Aldrich). […] Antagonist pIC50 values for blocking ATP responses were determined using iterative curve fitting techniques.

`O=C(c1cccc(C(F)(F)F)c1Cl)N1CCn2c(nnc2C2CC2)C1` [Example 133, 7-{[2-chloro-3-(trifluoromethyl)phenyl]carbonyl}-3-cyclopropyl-5,6,7,8-tetrahydro[1,2,4]triazolo[4,3-a]pyrazine]: the IC50 is less than 100 nM.
With `O=C(c1cccc(Cl)c1Cl)N1CCn2c(nnc2-c2ccc[nH]2)C1` [Example 64, 7-[(2,3-dichlorophenyl)carbonyl]-3-(1H-pyrrol-2-yl)-5,6,7,8-tetrahydro[1,2,4]triazolo [4,3-a]pyrazine], the IC50 was less than 10 nM.
As to `N#Cc1ccccc1C(=O)N1CCn2c(nnc2-c2ccccn2)C1` [Example 87, 2-{[3-(2-pyridinyl)-5,6-dihydro[1,2,4]triazolo[4,3-a]pyrazin-7(8H)-yl]carbonyl}benzonitrile], the IC50 is less than 100 nM.
With `Cc1ccnc(-c2nnc3n2CCN(C(=O)c2cccc(C(F)(F)F)c2Cl)C3)c1` [Example 56, 7-{[2-chloro-3-(trifluoromethyl)phenyl]carbonyl}-3-(4-methyl-2-pyridinyl)-5,6,7,8-tetrahydro[1,2,4]triazolo [4,3-a]pyrazine], the IC50 is less than 10 nM.
For `O=C(c1ccc(F)cc1Cl)N1CCn2c(Br)nnc2C1` [Example 109, 3-Bromo-7-[(2-chloro-4-fluorophenyl)carbonyl]-5,6,7,8-tetrahydro[1,2,4]triazolo[4,3-a]pyrazine], the IC50 is less than 501 nM.
Consider `COCCc1nnc2n1CCN(C(=O)c1cccc(C(F)(F)F)c1Cl)C2` [Example 137, 7-{[2-chloro-3-(trifluoromethyl)phenyl]carbonyl}-3-[2-(methyloxy)ethyl]-5,6,7,8-tetrahydro[1,2,4]triazolo[4,3-a]pyrazine], for which the IC50 was less than 100 nM.
The result for `O=C(c1ccc(F)cc1Cl)N1CCn2c(nnc2-c2cnccn2)C1` [Example 85, 7-[(2-chloro-4-fluorophenyl)carbonyl]-3-(2-pyrazinyl)-5,6,7,8-tetrahydro[1,2,4]triazolo[4,3-a]pyrazine] reads less than 10 nM.
Under `Cc1cc(F)ccc1C(=O)N1CCn2c(nnc2-c2cnccn2)C1` [Example 107, 7-[(4-fluoro-2-methylphenyl)carbonyl]-3-(2-pyrazinyl)-5,6,7,8-tetrahydro[1,2,4]triazolo [4,3-a]pyrazine] stands less than 100 nM.
`CC(C)(C)c1nnc2n1CCN(C(=O)c1cccc(C(F)(F)F)c1Cl)C2` [Example 25, 7-{[2-chloro-3-(trifluoromethyl)phenyl]carbonyl}-3-(1,1-dimethylethyl)-5,6,7,8-tetrahydro[1,2,4]triazolo [4,3-a]pyrazine]: the IC50 was less than 501 nM.
On to `O=C(c1ccc(F)cc1Cl)N1CCn2c(nnc2-c2cccc3cccnc23)C1` [Example 129, 8-{7-[(2-chloro-4-fluorophenyl)carbonyl]-5,6,7,8-tetrahydro[1,2,4]triazolo[4,3-a]pyrazin-3-yl}quinoline], for which the IC50 is less than 501 nM.
For `O=C(c1ccc(F)cc1C(F)(F)F)N1CCn2c(nnc2-c2ccccn2)C1` [Example 94, 7-{[4-fluoro-2-(trifluoromethyl)phenyl]carbonyl}-3-(2-pyridinyl)-5,6,7,8-tetrahydro[1,2,4]triazolo [4,3-a]pyrazine], the IC50 is less than 100 nM.
Turning to `Cc1cc(-c2nnc3n2CCN(C(=O)c2ccc(F)cc2Cl)C3)no1` [Example 71, 7-[(2-chloro-4-fluorophenyl)carbonyl]-3-(5-methyl-3-isoxazolyl)-5,6,7,8-tetrahydro[1,2,4]triazolo [4,3-a]pyrazine], the IC50 was less than 501 nM.
The result for `O=C(c1cccc(C(F)(F)F)c1Cl)N1CCn2c(nnc2N2CCCCC2)C1` [Example 23, 7-{[2-chloro-3-(trifluoromethyl)phenyl]carbonyl}-3-(1-piperidinyl)-5,6,7,8-tetrahydro[1,2,4]triazolo [4,3-a]pyrazine] reads less than 100 nM.
As for `Cn1nccc1-c1nnc2n1CCN(C(=O)c1cccc(C(F)(F)F)c1Cl)C2` [Example 68, 7-{[2-chloro-3-(trifluoromethyl)phenyl]carbonyl}-3-(1-methyl-1H-pyrazol-5-yl)-5,6,7,8-tetrahydro[1,2,4]triazolo [4,3-a]pyrazine], the IC50 is less than 100 nM.
Turning to `O=C(c1ccc(Cl)cc1F)N1CCn2c(nnc2-c2cnccn2)C1` [Example 106, 7-[(4-chloro-2-fluorophenyl)carbonyl]-3-(2-pyrazinyl)-5,6,7,8-tetrahydro[1,2,4]triazolo [4,3-a]pyrazine], the IC50 was less than 10 nM.
In the case of `O=C(c1ccc(F)c(Cl)c1Cl)N1CCn2c(nnc2-c2cnccn2)C1` [Example 113, 7-[(2,3-Dichloro-4-fluorophenyl)carbonyl]-3-(2-pyrazinyl)-5,6,7,8-tetrahydro[1,2,4]triazolo[4,3-a]pyrazine], the IC50 was less than 10 nM.
`O=C(c1cccc(C(F)(F)F)c1Cl)N1CCn2c(nnc2-c2ncc(F)cc2F)C1` [Example 83, 7-{[2-chloro-3-(trifluoromethyl)phenyl]carbonyl}-3-(3,5-difluoro-2-pyridinyl)-5,6,7,8-tetrahydro[1,2,4]triazolo [4,3-a]pyrazine]: the IC50 is less than 10 nM.
On to `O=C(c1cccc(C(F)(F)F)c1Cl)N1CCn2c(nnc2-c2ccc[nH]2)C1` [Example 38, 7-{[2-chloro-3-(trifluoromethyl)phenyl]carbonyl}-3-(1H-pyrrol-2-yl)-5,6,7,8-tetrahydro[1,2,4]triazolo [4,3-a]pyrazine], for which the IC50 was less than 10 nM.
On to `O=C(c1cccc(C(F)(F)F)c1Cl)N1CCn2c(nnc2N2CCOCC2)C1` [Example 18, 7-{[2-Chloro-3-(trifluoromethyl)phenyl]carbonyl}-3-(4-morpholinyl)-5,6,7,8-tetrahydro[1,2,4]triazolo[4,3-a]pyrazine], for which the IC50 was less than 501 nM.
The result for `O=C(c1ccc(Cl)c(C(F)(F)F)c1)N1CCn2c(nnc2-c2cnccn2)C1` [Example 104, 7-{[4-chloro-3-(trifluoromethyl)phenyl]carbonyl}-3-(2-pyrazinyl)-5,6,7,8-tetrahydro[1,2,4]triazolo [4,3-a]pyrazine] reads less than 100 nM; that for `O=C(c1ccc(Cl)cc1F)N1CCn2c(nnc2-c2ccccn2)C1` [Example 96, 7-[(4-chloro-2-fluorophenyl)carbonyl]-3-(2-pyridinyl)-5,6,7,8-tetrahydro[1,2,4]triazolo [4,3-a]pyrazine], less than 100 nM.
The result for `Cc1cccc(-c2nnc3n2CCN(C(=O)c2cccc(Cl)c2Cl)C3)n1` [Example 69, 7-[(2,3-dichlorophenyl)carbonyl]-3-(6-methyl-2-pyridinyl)-5,6,7,8-tetrahydro[1,2,4]triazolo [4,3-a]pyrazine] reads less than 10 nM.
On to `O=C(c1cccc(C(F)(F)F)c1Cl)N1CCn2c(nnc2-c2ncccc2F)C1` [Example 52, 7-{[2-chloro-3-(trifluoromethyl)phenyl]carbonyl}-3-(3-fluoro-2-pyridinyl)-5,6,7,8-tetrahydro[1,2,4]triazolo [4,3-a]pyrazine], for which the IC50 is less than 10 nM.
On to `O=C(c1ccccc1Cl)N1CCn2c(nnc2-c2ccc(F)cn2)C1` [Example 118, 7-[(2-chlorophenyl)carbonyl]-3-(5-fluoro-2-pyridinyl)-5,6,7,8-tetrahydro[1,2,4]triazolo[4,3-a]pyrazine], for which the IC50 is less than 100 nM.
`O=C(c1cccc(C(F)(F)F)c1Cl)N1CCn2c(nnc2C2CCCC2)C1` [Example 139, 7-{[2-chloro-3-(trifluoromethyl)phenyl]carbonyl}-3-cyclopentyl-5,6,7,8-tetrahydro[1,2,4]triazolo[4,3-a]pyrazine]: the IC50 was less than 100 nM.
